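Compound exposure: 48 hours, 5 concentrations, 96-well plates. Abbreviation: GI50, concentration required for 50% inhibition of growth.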 Active and inactive are the calls of the source. No stated cut-off is given here; in the data, active = GI50 up to about 1.1 µM and inactive = higher.
Experiments:
Assay in all cases: NCI-60 cell line screen, 48 h
[1] = test system: HOP-62
[2] = test system: UACC-62
[3] = test system: OVCAR-4
[4] = test system: SF-268
[5] = test system: A498
[6] = test system: SNB-75
[7] = test system: SR
[8] = test system: UO-31
[9] = test system: RPMI-8226
[10] = test system: SK-MEL-28
[11] = test system: Malme-3M
[12] = test system: A549
[13] = test system: U-251
[14] = test system: MDA-MB-231
[15] = test system: NCI/ADR-RES
[16] = test system: HOP-92
[17] = test system: NCI-H23
[18] = test system: MDA-N
[19] = test system: Hs-578T

Measured: GI50

[O-][Cl+3]([O-])([O-])O.c1ccc(/N=c2\snc(-c3ccccc3)s2)cc1
inactive: [1] > 100 µM | [2] > 100 µM | [3] > 100 µM | [4] > 100 µM | [5] > 100 µM | [6] > 100 µM | [7] > 100 µM | [8] > 100 µM | [9] > 100 µM | [10] > 100 µM | [11] > 100 µM | [12] > 100 µM | [13] > 100 µM

N#C[C@]12CC3(CC[C@H]1CC1(C2)OCCO1)OCCO3
inactive: [1] > 100 µM | [2] > 100 µM | [3] > 100 µM | [4] > 100 µM | [5] > 100 µM | [6] > 100 µM | [7] > 100 µM | [8] > 100 µM | [9] > 100 µM | [10] > 100 µM | [11] > 100 µM | [12] > 100 µM | [13] > 100 µM

Nn1nnc2ccccc21
inactive: [1] > 100 µM | [2] > 100 µM | [3] > 100 µM | [14] > 100 µM | [15] > 100 µM | [4] > 100 µM | [16] > 100 µM | [5] > 100 µM | [6] > 100 µM | [17] > 100 µM | [7] > 100 µM | [8] > 100 µM | [9] > 100 µM | [10] > 100 µM | [11] > 100 µM | [12] > 100 µM | [13] > 100 µM

O=C(Nc1cc2c(=O)oc3ccccc3c2oc1=O)c1cccnc1
inactive: [2] > 100 µM | [3] > 100 µM | [14] > 100 µM | [15] > 100 µM | [16] > 100 µM | [6] 62.4 µM | [17] > 100 µM | [7] 78.5 µM | [8] > 100 µM | [10] > 100 µM | [18] > 100 µM | [11] > 100 µM | [12] > 100 µM | [13] 35.6 µM

CCOC(=O)C[n+]1cccc(C2(c3cc4ccccc4[nH]3)OCCO2)c1
inactive: [1] > 100 µM | [2] > 100 µM | [3] > 100 µM | [14] > 100 µM | [15] > 100 µM | [4] > 100 µM | [16] > 100 µM | [5] > 100 µM | [6] > 100 µM | [17] > 100 µM | [7] > 100 µM | [19] > 100 µM | [8] > 100 µM | [9] > 100 µM | [10] > 100 µM | [11] > 100 µM | [12] > 100 µM | [13] > 100 µM

O=C(Cc1nc(-c2ccccc2)cc(=O)n1-c1ccccc1Cl)c1ccncc1
inactive: [1] > 100 µM | [2] > 100 µM | [3] > 100 µM | [4] > 100 µM | [16] > 100 µM | [5] > 100 µM | [6] 25.2 µM | [17] > 100 µM | [8] > 100 µM | [10] > 100 µM | [11] > 100 µM | [12] > 100 µM | [13] > 100 µM

Cc1nc2ccccc2c(=O)n1-c1n[nH]c2ccccc12
inactive: [1] > 100 µM | [2] > 100 µM | [3] > 100 µM | [14] > 100 µM | [15] > 100 µM | [4] > 100 µM | [16] > 100 µM | [5] > 100 µM | [6] > 100 µM | [17] > 100 µM | [7] > 100 µM | [19] > 100 µM | [8] > 100 µM | [9] > 100 µM | [10] > 100 µM | [11] > 100 µM | [12] > 100 µM | [13] > 100 µM

O=C(Nc1ccc(Cl)cc1)c1cc2c(cc1Cl)SC(NNCCO)=NS2(=O)=O
inactive: [1] > 100 µM | [2] > 100 µM | [3] > 100 µM | [14] > 100 µM | [15] > 100 µM | [4] > 100 µM | [16] 92.3 µM | [5] 17.6 µM | [6] > 100 µM | [17] > 100 µM | [7] > 100 µM | [19] > 100 µM | [8] > 100 µM | [9] > 100 µM | [10] > 100 µM | [13] > 100 µM

COc1cc2c(cc1OC)C(N)CC2=O (configuration not stated)
inactive: [1] > 100 µM | [2] > 100 µM | [3] > 100 µM | [14] > 100 µM | [15] > 100 µM | [4] > 100 µM | [16] > 100 µM | [5] > 100 µM | [6] > 100 µM | [17] > 100 µM | [7] > 100 µM | [19] > 100 µM | [8] > 100 µM | [9] > 100 µM | [10] > 100 µM | [12] > 100 µM | [13] > 100 µM

CNc1nnc(CCCCCCCCc2nnc(NC)o2)o1
inactive: [1] 35.3 µM | [3] > 100 µM | [14] > 100 µM | [15] > 100 µM | [16] > 100 µM | [5] > 100 µM | [6] > 100 µM | [17] > 100 µM | [8] > 100 µM | [10] > 100 µM | [18] > 100 µM | [12] > 100 µM | [13] 22.2 µM

Cc1cc(C)c(C#N)c(SC(=S)NC(=O)c2ccc(Cl)cc2)n1
inactive: [1] > 100 µM | [2] > 100 µM | [3] > 100 µM | [14] > 100 µM | [15] > 100 µM | [4] > 100 µM | [16] > 100 µM | [5] > 100 µM | [6] > 100 µM | [17] > 100 µM | [8] > 100 µM | [9] > 100 µM | [10] > 100 µM | [12] > 100 µM | [13] > 100 µM

CCN(CC)C(=O)Cn1c2ccccc2[n+]2cc(N)ccc12
inactive: [1] > 100 µM | [2] > 100 µM | [3] > 100 µM | [14] > 100 µM | [15] > 100 µM | [4] > 100 µM | [16] > 100 µM | [5] > 100 µM | [6] > 100 µM | [17] > 100 µM | [7] > 100 µM | [19] > 100 µM | [8] > 100 µM | [9] > 100 µM | [10] > 100 µM | [11] > 100 µM | [12] > 100 µM | [13] > 100 µM

C[N+]12c3ccccc3O[B-]1(c1ccccc1)Oc1ccccc12 (configuration not stated)
inactive: [1] 72.1 µM | [2] 37.4 µM | [3] 31.6 µM | [4] 20.3 µM | [16] > 100 µM | [5] > 100 µM | [6] 19.9 µM | [17] 52.8 µM | [7] 10.9 µM | [9] 37.4 µM | [10] 35.1 µM | [11] 40 µM | [12] 39.4 µM | [13] 16.6 µM

O=C(Cc1ccc(O)c(O)c1)NCc1c[nH]c2ccccc12
inactive: [1] 17.8 µM | [3] 37 µM | [15] 46.6 µM | [4] 37.8 µM | [16] > 100 µM | [5] > 100 µM | [6] > 100 µM | [17] 39.1 µM | [19] > 100 µM | [8] 42.3 µM | [9] 18.1 µM | [10] 83.6 µM | [11] 23.1 µM | [12] 64.7 µM

CC(CO)(CBr)COC(=O)c1cc(Br)c(N)c(Br)c1 (configuration not stated)
inactive: [1] 32.4 µM | [2] > 100 µM | [3] > 100 µM | [14] 37.1 µM | [15] > 100 µM | [4] 29.3 µM | [16] 20.4 µM | [5] 62.2 µM | [17] 79.3 µM | [7] 30.7 µM | [8] 2.67 µM | [9] > 100 µM | [10] > 100 µM | [18] 59.7 µM | [12] > 100 µM | [13] 54 µM

Cc1ccccc1N/C(=C(/C(Cl)=C(Cl)Cl)[N+](=O)[O-])n1nnc2ccccc21
inactive: [1] 16.9 µM | [2] 22.7 µM | [3] 17.5 µM | [14] 21.3 µM | [15] 18.2 µM | [4] 15.7 µM | [5] 19.4 µM | [6] 16.6 µM | [17] 19.1 µM | [19] 11.6 µM | [8] 16.7 µM | [9] 24.1 µM | [10] 17 µM | [11] 14.7 µM | [12] 41.7 µM | [13] 16.3 µM

O=[N+]([O-])c1ccc2nnnn2c1
inactive: [1] 31 µM | [2] 13.4 µM | [3] 78.7 µM | [14] 10.8 µM | [15] 25.5 µM | [4] 70.6 µM | [16] 96.6 µM | [6] 85.3 µM | [17] 22.6 µM | [7] 4.76 µM | [19] 5.38 µM | [8] 7.89 µM | [10] 20.8 µM | [11] 20.9 µM | [12] 45.3 µM | [13] 23.2 µM

Cn1c(=O)c2[nH]c(-n3nc(-c4ccccc4)cc3N)nc2n(C)c1=O
inactive: [1] 12.5 µM | [2] 6.37 µM | [3] 2.91 µM | [14] 10.6 µM | [15] 2.4 µM | [4] 11.3 µM | [16] 6.46 µM | [5] 11.1 µM | [7] 4.31 µM | [8] 6.89 µM | [9] 12.6 µM | [10] 11 µM | [18] 11.7 µM | [11] 13.7 µM | [12] 5.78 µM | [13] 6.78 µM
